Where a SMILES comes first, the peptide text is derived from it. Where no end group is shown, it is not given here.
Legend:
[1] = test system: differentiated HL-60 cells; assay: migration activity (Chemotaxis Index) of differentiated HL-60 cells; assay type: cell-based, human
Description: (3) Measurement of Migration Activity
The cells were collected by centrifuging the suspension of the differentiated HL-60 cells (1,000 rpm, 5 minutes, 4° C.). After that, the following operation was repeated three times to wash the cells: 10% FBS-RPMI1640 was added to the cells; the mixture was suspended by inversion; and the mixture was centrifuged again (1,000 rpm, 5 minutes, 4° C.). Then, a medium (10% FBS-RPMI1640) was added so that a cell density was 4×10^6 cells/ml, thereby a cell suspension was prepared. Subsequently, 1 ml of each peptide solution (dissolved in 10% FBS-RPMI 1640) was transferred to each well of a 24-well plate, and the plate was incubated at 37° C. for 20 minutes. After that, 500 μl of the cell suspension (2×10^6 cells) were put in Chemotaxicell (KURABO […] LTD., 3 μm) and the Chemotaxicell was set in a plate, followed by incubation in the presence of 5% CO2 at 37° C. for 1 hour. Then, the Chemotaxicell was removed and the solution in each well of the plate was pipetted. The cells migrated to the plate side was suspended well and the number of the cells were measured. Note that the migration activity by the peptide was represented by a ratio of the number of the cells to the number of the cells passing the Chemotaxicell at the time of non-stimulation (Chemotaxis Index, CI).

[2] = test system: HL-60 cells differentiated into the neutrophil-like cells; assay: β-hexosaminidase-secreting activity of neutrophil-like differentiated HL-60 cells; assay type: cell-based, human; conditions: differentiated HL-60 cells; for EC50: read-out: EC50, β-hexosaminidase-secreting activity
From the text: (1) Culture of Cell and Differentiation Into Neutrophil-like Cell
In this time, the cells were subcultured at a cell density of 1.0×10^5 cells/ml to 1.5×10^6 cells/ml, the number of cells was counted using a microscope, and the state of the cells was also confirmed.
The HL-60 cells were differentiated into neutrophil-like cells by setting the cell density in the flask to about 1.0×10^6 cells/ml, adding dibutylyl-cAMP (db-cAMP) as a differentiation-inducing agent so as to have a final concentration of 500 μM, and incubating the cells in the presence of CO2 at 37° C. for 3 days.
(2) Stimulation of Cell and Measurement of β-Hexosaminidase-secreting Activity
The cells were collected by centrifuging the suspension of the differentiated HL-60 cells (1,000 rpm, 5 minutes, 4° C.). After that, the following operation was repeated three times to wash the cells: Hepes buffered Hank's solution (HBHS) containing ice-cooled 0.1% BSA (1.2 mM CaCl2.2H2O, 5.4 mM KCl, 0.44 mM KH2PO4, 0.49 mM MgCl2.6H2O, 0.41 mM MgSO4.7H2O, 136.9 mM NaCl, 0.34 mM Na2HPO4, 10 mM Hepes, 4.2 mM NaHCO3, 5.5 mM D-glucose, pH 7.4) was added to the cells; the mixture was suspended by inversion; and the mixture was centrifuged again (1,000 rpm, 5 minutes, 4° C.). Subsequently, HBHS was added so that the mixture has a cell density of 5.6×10^6 cells/ml and suspended. Then, DNase I and cytochalasin B were each added so as to have a final concentration of 5 μg/ml, and the cell suspension was dispensed in an amount of 90 μl (5×10^5 cells) on ice. […] After the cell stimulation for 10 minutes, 100 μl of an ice-cooled stop solution (25 mM Tris, 123 mM NaCl, 2.7 mM KCl, pH 7.4) were added, and immediately, the mixture was centrifuged (5,000 rpm, 1 minute, 4° C.). 200 μl of the obtained supernatant were transferred to a new tube.
The amount of β-hexosaminidase released in the supernatant of the reaction solution was measured by an enzyme reaction using p-nitrophenyl-N-acetyl-μ-D-glucosaminide as a substrate (Non-patent Document 12). That is, the supernatant of the reaction solution was dispensed in an amount of 90 μl to a 96-well plate. 60 μl of a substrate solution (10 mM p-nitrophenyl-N-acetyl-μ-D-glucosaminide, 40 mM citrate, 70 mM Na2HPO4, pH 4.5) were added to each well, followed by incubation at 37° C. for 1 hour. After the reaction, 100 μl of a stop solution (0.4 M glycine, pH 10.7) were added to each well and a color of the released p-nitrophenol was developed. The color development was measured with a plate reader at adsorption at 405 nm (reference: 492 nm). The all amount of β-hexosaminidase contained in the cells was quantified by treating the cells with Triton X-100 having a final concentration of 0.05%. In addition, the amount of β-hexosaminidase secreted by stimulation of 10 μM fMLP was also measured, and the ratio of the secretion amount by stimulation with each peptide to the above sectretion amount by stimulation with fMLP.

| EC50 [2] [nM] | Compound | concentration of migration activity compared with that of β-hexosaminidase-secreting activity [1] | β-hexosaminidase-secreting activity of C-terminally extended peptide compared to the peptide before the extension [2] | desensitization of migration activity with increasing concentration of the peptide [1] |
| --- | --- | --- | --- | --- |
| 110 | MFRRPVLQVLRQFVRH [No. 037] | confirmed at the almost same concentration | – | subjected to desensitization completely |
| 100 | MFPLARNALSSLKIQSILQSMARH [No. 048] | confirmed at the almost same concentration | – | – |

More lines, now with the values behind:

| Compound | EC50 [2] [nM] | concentration of migration activity compared with that of β-hexosaminidase-secreting activity [1] | β-hexosaminidase-secreting activity of C-terminally extended peptide compared to the peptide before the extension [2] | desensitization of migration activity with increasing concentration of the peptide [1] |
| --- | --- | --- | --- | --- |
| MFPLVKSALNRLQVRSIQQTMARQSHQKRT [No. 031] | 200 | confirmed at the almost same concentration | higher activity compared to the peptides before the extension | – |
| MLWNLLALHQIGQRTISTASHRHFKNKVPEKQK [No. 032] | 150 | confirmed at the concentration lower than the concentration at which β-hexosaminidase-secreting activity was confirmed | higher activity compared to the peptides before the extension | – |
| CC[C@H](C)[C@H](NC(=O)[C@H](CS)NC(=O)[C@H](CC(C)C)NC(=O)[C@H](CCC(N)=O)NC(=O)[C@@H]1CCCN1C(=O)[C@H](CO)NC(=O)[C@H](Cc1ccccc1)NC(=O)[C@H](Cc1c[nH]cn1)NC(=O)[C@H](C)NC(=O)[C@H](CCCNC(=N)N)NC(=O)[C@H](CC(C)C)NC(=O)[C@H](CS)NC(=O)[C@H](Cc1c[nH]cn1)NC(=O)[C@H](CCCNC(=N)N)NC(=O)CNC(=O)[C@@H](NC(=O)[C@H](Cc1c[nH]cn1)NC(=O)[C@H](CCCNC(=N)N)NC(=O)[C@H](CC(C)C)NC(=O)[C@H](CC(C)C)NC(=O)[C@H](CC(C)C)NC(=O)[C@H](C)NC(=O)[C@H](C)NC(=O)[C@@H](N)CCSC)C(C)C)C(=O)N[C@@H](CCCNC(=N)N)C(=O)N[C@@H](CC(N)=O)C(=O)N[C@@H](C)C(=O)N[C@H](C(=O)N1CCC[C@H]1C(=O)N[C@@H](CC(C)C)C(=O)O)C(C)C [No. 023] (H-MAALLLRHVGRHCLRAHFSPQLCIRNAVPL-OH; N-terminus and C-terminus assumed) | 300 | confirmed at the almost same concentration | – | subjected to desensitization completely |

Reference: patent publication US7893199B2, “Peptides having neutrophil-stimulating activity” (National University Corporation Gunma University, priority 2006, dated 2011)
